Measurements: BigSolDB 2.1

O=[N+]([O-])c1cn[nH]c1[N+](=O)[O-]
solubility (mole fraction)
Details	298.15 K	303.15 K	308.15 K	313.15 K	318.15 K	323.15 K	328.15 K	333.15 K	338.15 K
in anisole	0.043	0.058	0.0778	0.103	0.138	0.181	0.237	0.313	0.411
in benzene	0.00171	0.00211	0.00264	0.00317	0.00389	0.00482	0.00585	0.00742	0.00936
in chlorobenzene	0.0012	0.00147	0.0018	0.00218	0.00266	0.00328	0.00402	0.00494	0.00609
in isopropanol	0.388	0.413	0.441	0.472	0.509	0.547	0.588	0.642	0.7
in n-butanol	0.318	0.348	0.387	0.411	0.444	0.489	0.528	0.586	0.648
in toluene	0.00201	0.0024	0.00291	0.00345	0.00411	0.00499	0.00601	0.00725	0.00877
